Source: ChEMBL document CHEMBL2016493, “Design, synthesis, synergistic antimicrobial activity and cytotoxicity of 4-aryl substituted 3,4-dihydropyrimidinones of curcumin” (Bioorg Med Chem Lett, 2012)
Active and inactive are the calls of the source. No cut-off for these calls is given here.

Experiments:
[1] = test system: Burkholderia pseudomallei; assay: Antibacterial activity against Burkholderia pseudomallei NTCC 10274 at 40 uM/ml after 24 hrs by kirby-bauer method; assay type: functional; details: NTCC 10274, 24 h, read-out: IZ
Escherichia coli [2] = assay: Antibacterial activity against Escherichia coli ATCC 35218 at 160 uM/ml after 24 hrs by kirby-bauer method; assay type: functional; details: ATCC 35218, 24 h, read-out: IZ
Staphylococcus aureus [3] = assay: Antibacterial activity against Staphylococcus aureus ATCC 11632 at 80 uM/ml after 24 hrs by kirby-bauer method; assay type: functional; details: ATCC 11632, 24 h, read-out: IZ
Staphylococcus aureus [4] = assay: Antibacterial activity against Staphylococcus aureus ATCC 11632 at 160 uM/ml after 24 hrs by kirby-bauer method; assay type: functional; details: ATCC 11632, 24 h, read-out: IZ
Pseudomonas aeruginosa [5] = assay: Antibacterial activity against Pseudomonas aeruginosa ATCC 15499 at 160 uM/ml after 24 hrs by kirby-bauer method; assay type: functional; details: ATCC 15499, 24 h, read-out: IZ
Curvularia lunata [6] = assay: Antifungal activity against Curvularia lunata MTCC 581 at 160 uM/ml after 48 hrs by paper disc diffusion method; assay type: functional; details: MTCC 581, 48 h, read-out: IZ
Aspergillus niger [7] = assay: Antifungal activity against Aspergillus niger MTCC 1108 at 80 uM/ml after 48 hrs by paper disc diffusion method; assay type: functional; details: MTCC 1108, 48 h, read-out: IZ
Pseudomonas aeruginosa [8] = assay: Antibacterial activity against Pseudomonas aeruginosa ATCC 15499 at 20 uM/ml after 24 hrs by kirby-bauer method; assay type: functional
Escherichia coli [9] = assay: Antibacterial activity against Escherichia coli ATCC 35218 at 80 uM/ml after 24 hrs by kirby-bauer method; assay type: functional; details: ATCC 35218, 24 h, read-out: IZ
Aspergillus niger [10] = assay: Antifungal activity against Aspergillus niger MTCC 1108 at 40 uM/ml after 48 hrs by paper disc diffusion method; assay type: functional
Curvularia lunata [11] = assay: Antifungal activity against Curvularia lunata MTCC 581 at 20 uM/ml after 48 hrs by paper disc diffusion method; assay type: functional; details: MTCC 581, 48 h, read-out: IZ
Aspergillus flavus [12] = assay: Antifungal activity against Aspergillus flavus MTCC 1021 at 160 uM/ml after 48 hrs by paper disc diffusion method; assay type: functional; details: MTCC 1021, 48 h, read-out: IZ
Trichoderma viride [13] = assay: Antifungal activity against Trichoderma viride MTCC 1107 at 20 uM/ml after 48 hrs by paper disc diffusion method; assay type: functional
[14] = test system: Burkholderia pseudomallei; assay: Antibacterial activity against Burkholderia pseudomallei NTCC 10274 at 160 uM/ml after 24 hrs by kirby-bauer method; assay type: functional; details: NTCC 10274, 24 h, read-out: IZ
QG-56 = assay: Cytotoxicity against human QG56 cells after 48 hrs by MTT assay; assay type: functional, cell-based
Staphylococcus aureus [15] = assay: Antibacterial activity against Staphylococcus aureus ATCC 11632 at 40 uM/ml after 24 hrs by kirby-bauer method; assay type: functional
Staphylococcus aureus [16] = assay: Antibacterial activity against Staphylococcus aureus ATCC 11632 at 20 uM/ml after 24 hrs by kirby-bauer method; assay type: functional
Aspergillus flavus [17] = assay: Antifungal activity against Aspergillus flavus MTCC 1021 at 20 uM/ml after 48 hrs by paper disc diffusion method; assay type: functional
Curvularia lunata [18] = assay: Antifungal activity against Curvularia lunata MTCC 581 at 40 uM/ml after 48 hrs by paper disc diffusion method; assay type: functional; details: MTCC 581, 48 h, read-out: IZ
Aspergillus flavus [19] = assay: Antifungal activity against Aspergillus flavus MTCC 1021 at 40 uM/ml after 48 hrs by paper disc diffusion method; assay type: functional
Salmonella typhimurium [20] = assay: Antibacterial activity against Salmonella typhimurium ATCC 23564 at 160 uM/ml after 24 hrs by kirby-bauer method; assay type: functional, Salmonella enterica subsp. enterica serovar Typhimurium; details: Salmonella enterica, ATCC 23564, 24 h; read-out: IZ
[21] = test system: Burkholderia pseudomallei; assay: Antibacterial activity against Burkholderia pseudomallei NTCC 10274 at 80 uM/ml after 24 hrs by kirby-bauer method; assay type: functional; details: NTCC 10274, 24 h, read-out: IZ
Trichoderma viride [22] = assay: Antifungal activity against Trichoderma viride MTCC 1107 at 160 uM/ml after 48 hrs by paper disc diffusion method; assay type: functional; details: MTCC 1107, 48 h, read-out: IZ
Salmonella typhimurium [23] = assay: Antibacterial activity against Salmonella typhimurium ATCC 23564 at 20 uM/ml after 24 hrs by kirby-bauer method; assay type: functional, Salmonella enterica subsp. enterica serovar Typhimurium
Salmonella typhimurium [24] = assay: Antibacterial activity against Salmonella typhimurium ATCC 23564 at 40 uM/ml after 24 hrs by kirby-bauer method; assay type: functional, Salmonella enterica subsp. enterica serovar Typhimurium; details: Salmonella enterica, ATCC 23564, 24 h; read-out: IZ
Trichoderma viride [25] = assay: Antifungal activity against Trichoderma viride MTCC 1107 at 40 uM/ml after 48 hrs by paper disc diffusion method; assay type: functional; details: MTCC 1107, 48 h, read-out: IZ
Salmonella typhimurium [26] = assay: Antibacterial activity against Salmonella typhimurium ATCC 23564 at 80 uM/ml after 24 hrs by kirby-bauer method; assay type: functional, Salmonella enterica subsp. enterica serovar Typhimurium; details: Salmonella enterica, ATCC 23564, 24 h; read-out: IZ
Pseudomonas aeruginosa [27] = assay: Antibacterial activity against Pseudomonas aeruginosa ATCC 15499 at 40 uM/ml after 24 hrs by kirby-bauer method; assay type: functional; details: ATCC 15499, 24 h, read-out: IZ
Curvularia lunata [28] = assay: Antifungal activity against Curvularia lunata MTCC 581 at 80 uM/ml after 48 hrs by paper disc diffusion method; assay type: functional; details: MTCC 581, 48 h, read-out: IZ
Aspergillus niger [29] = assay: Antifungal activity against Aspergillus niger MTCC 1108 at 160 uM/ml after 48 hrs by paper disc diffusion method; assay type: functional; details: MTCC 1108, 48 h, read-out: IZ
Escherichia coli [30] = assay: Antibacterial activity against Escherichia coli ATCC 35218 at 40 uM/ml after 24 hrs by kirby-bauer method; assay type: functional; details: ATCC 35218, 24 h, read-out: IZ
Trichoderma viride [31] = assay: Antifungal activity against Trichoderma viride MTCC 1107 at 80 uM/ml after 48 hrs by paper disc diffusion method; assay type: functional; details: MTCC 1107, 48 h, read-out: IZ
Pseudomonas aeruginosa [32] = assay: Antibacterial activity against Pseudomonas aeruginosa ATCC 15499 at 80 uM/ml after 24 hrs by kirby-bauer method; assay type: functional; details: ATCC 15499, 24 h, read-out: IZ
Escherichia coli [33] = assay: Antibacterial activity against Escherichia coli ATCC 35218 at 20 uM/ml after 24 hrs by kirby-bauer method; assay type: functional
Aspergillus niger [34] = assay: Antifungal activity against Aspergillus niger MTCC 1108 at 20 uM/ml after 48 hrs by paper disc diffusion method; assay type: functional
[35] = test system: Burkholderia pseudomallei; assay: Antibacterial activity against Burkholderia pseudomallei NTCC 10274 at 20 uM/ml after 24 hrs by kirby-bauer method; assay type: functional; details: NTCC 10274, 24 h, read-out: IZ
Aspergillus flavus [36] = assay: Antifungal activity against Aspergillus flavus MTCC 1021 at 80 uM/ml after 48 hrs by paper disc diffusion method; assay type: functional

| SMILES | zone of inhibition at 40 µM [1] | zone of inhibition at 160 µM (Escherichia coli [2]) | zone of inhibition at 80 µM (Staphylococcus aureus [3]) | zone of inhibition at 160 µM (Staphylococcus aureus [4]) | zone of inhibition at 160 µM (Pseudomonas aeruginosa [5]) | zone of inhibition at 160 µM (Curvularia lunata [6]) | zone of inhibition at 80 µM (Aspergillus niger [7]) | zone of inhibition at 80 µM (Escherichia coli [9]) | zone of inhibition at 20 µM (Curvularia lunata [11]) | zone of inhibition at 160 µM (Aspergillus flavus [12]) | zone of inhibition at 160 µM [14] | IC50 (QG-56) | inhibition zone (IZ) (Aspergillus flavus [17]) | zone of inhibition at 40 µM (Curvularia lunata [18]) | zone of inhibition at 160 µM (Salmonella typhimurium [20]) | zone of inhibition at 80 µM [21] | zone of inhibition at 160 µM (Trichoderma viride [22]) | zone of inhibition at 40 µM (Salmonella typhimurium [24]) | zone of inhibition (Trichoderma viride [25]) | IC50 (HepG2) | further results |
| --- | --- | --- | --- | --- | --- | --- | --- | --- | --- | --- | --- | --- | --- | --- | --- | --- | --- | --- | --- | --- | --- |
| COc1cc(/C=C/C(=O)C2=C(/C=C/c3ccc(O)c(OC)c3)NC(=O)NC2c2ccc(O)cc2)ccc1O (stereo not drawn) | 11 mm | 22 mm | 22 mm | 24 mm | 22 mm | 21 mm | 9 mm | 18 mm | 18 mm | 13 mm | 19 mm | 50 uM/ml | inactive | 20 mm | 18 mm | 15 mm | 16 mm | 13 mm | 11 mm | 25 uM/ml | zone of inhibition at 20 µM (Pseudomonas aeruginosa [8]; ATCC 15499, 24 h, read-out: IZ): 17 mm; inhibition zone (IZ) (Aspergillus niger [10]): inactive; zone of inhibition at 20 µM (Trichoderma viride [13]; MTCC 1107, 48 h, read-out: IZ): 9 mm; zone of inhibition at 40 µM (Staphylococcus aureus [15]; ATCC 11632, 24 h, read-out: IZ): 19 mm; zone of inhibition at 20 µM (Staphylococcus aureus [16]; ATCC 11632, 24 h, read-out: IZ): 16 mm; zone of inhibition at 40 µM (Aspergillus flavus [19]; MTCC 1021, 48 h, read-out: IZ): 9 mm; zone of inhibition at 20 µM (Salmonella typhimurium [23]; Salmonella enterica, ATCC 23564, 24 h, read-out: IZ): 9 mm; zone of inhibition at 80 µM (Salmonella typhimurium [26]): 16 mm; zone of inhibition at 40 µM (Pseudomonas aeruginosa [27]): 19 mm; zone of inhibition at 80 µM (Curvularia lunata [28]): 20 mm; zone of inhibition at 160 µM (Aspergillus niger [29]): 11 mm; zone of inhibition at 40 µM (Escherichia coli [30]): 14 mm; zone of inhibition at 80 µM (Trichoderma viride [31]): 14 mm; IC50 (HCT-116): 12.5 uM/ml; zone of inhibition at 80 µM (Pseudomonas aeruginosa [32]): 19 mm; zone of inhibition at 20 µM (Escherichia coli [33]; ATCC 35218, 24 h, read-out: IZ): 12 mm; inhibition zone (IZ) (Aspergillus niger [34]): inactive; zone of inhibition at 20 µM [35]: 9 mm; zone of inhibition at 80 µM (Aspergillus flavus [36]; MTCC 1021, 48 h, read-out: IZ): 11 mm |
| COc1cc(/C=C/C(=O)C2=C(/C=C/c3ccc(O)c(OC)c3)NC(=S)NC2c2ccc(O)c(OC)c2)ccc1O (stereo not drawn) | 16 mm | 14 mm | 9 mm | 11 mm | 14 mm | 24 mm | 12 mm | 11 mm | 19 mm | 11 mm | 21 mm | 100 uM/ml | inactive | 21 mm | 14 mm | 18 mm | 13 mm | 9 mm | 9 mm | 50 uM/ml | inhibition zone (IZ) (Pseudomonas aeruginosa [8]): inactive; zone of inhibition at 40 µM (Aspergillus niger [10]; MTCC 1108, 48 h, read-out: IZ): 11 mm; inhibition zone (IZ) (Trichoderma viride [13]): inactive; inhibition zone (IZ) (Staphylococcus aureus [15]): inactive; inhibition zone (IZ) (Staphylococcus aureus [16]): inactive; inhibition zone (IZ) (Aspergillus flavus [19]): inactive; inhibition zone (IZ) (Salmonella typhimurium [23]; Salmonella enterica subsp. enterica serovar Typhimurium): inactive; zone of inhibition at 80 µM (Salmonella typhimurium [26]): 12 mm; zone of inhibition at 40 µM (Pseudomonas aeruginosa [27]): 9 mm; zone of inhibition at 80 µM (Curvularia lunata [28]): 22 mm; zone of inhibition at 160 µM (Aspergillus niger [29]): 16 mm; zone of inhibition at 40 µM (Escherichia coli [30]): 9 mm; zone of inhibition at 80 µM (Trichoderma viride [31]): 11 mm; IC50 (HCT-116): 100 uM/ml; zone of inhibition at 80 µM (Pseudomonas aeruginosa [32]): 11 mm; inhibition zone (IZ) (Escherichia coli [33]): inactive; zone of inhibition at 20 µM (Aspergillus niger [34]; MTCC 1108, 48 h, read-out: IZ): 9 mm; zone of inhibition at 20 µM [35]: 13 mm; inhibition zone (IZ) (Aspergillus flavus [36]): inactive |
